Among the data in publication PMC6225185 (2018) are Kb and ΔTm3 values, retold here.

In experiment [1] the test system is [d-(TTGGGGT)]4 immobilized (SPR) (DNA, G4) TTGGGGT. The experiment can be described thus: SPR steady state. Particulars: 100 mM KCl; 10 mM HEPES, 3 mM EDTA, 0.005% P20, pH 7.4, 25 °C; dominant mode.
For experiment [2], the system named is [d-(TTGGGGT)]4 (DNA, G4) TTGGGGT. The experiment can be described thus: 1H NMR titration (T7H6 and T7CH3 shifts). The conditions noted are these: 100 mM KCl, 10 mM K2HPO4; 1 mM EDTA, pH 7.0, 25 °C, 90% H2O/10% D2O; site 1 of 2 (G6-T7); apparent.
Experiment [3] has the same test system. Nature of the experiment: DSC. The conditions noted are these: 100 mM KCl, 10 mM K2HPO4; 1 mM EDTA, pH 7.0; 50 µM quadruplex, D/N = 4.0 (200 µM daunomycin); third transition.

Turning to `COc1cccc2c1C(=O)c1c(O)c3c(c(O)c1C2=O)C[C@@](O)(C(C)=O)C[C@@H]3O[C@H]1C[C@H](N)[C@H](O)[C@H](C)O1`, the Kb in experiment [1] was ~ 4.1 × 10^3 M^−1; in experiment [2], ~ 1.8–2.3 × 10^4 M^−1. For the same compound, the ΔTm3 in experiment [3] is 14.4 ± 1.1 °C.
